Laboratory results published in the NIST ThermoML archive (doi:10.1021/acs.jced.9b00536).
Numbers after ± are expanded uncertainties.

Assay: refractive index (Na D-line) (dimensionless); wn = mass fraction of the nth substance listed
Conditions: 100 kPa, Liquid, Standard Abbe refractometry

[Na+].[OH-] [sodium hydroxide] + O
refractive index (308.15 K, w1 = 0.35): 1.4114 ± 0.002
refractive index (308.15 K, w1 = 0.36): 1.413 ± 0.002
refractive index (308.15 K, w1 = 0.37): 1.4145 ± 0.002
refractive index (308.15 K, w1 = 0.38): 1.4163 ± 0.002
refractive index (308.15 K, w1 = 0.39): 1.418 ± 0.002
refractive index (308.15 K, w1 = 0.4): 1.4196 ± 0.002
refractive index (308.15 K, w1 = 0.41): 1.4206 ± 0.002
refractive index (308.15 K, w1 = 0.42): 1.4221 ± 0.002
refractive index (308.15 K, w1 = 0.43): 1.4236 ± 0.002
refractive index (308.15 K, w1 = 0.44): 1.4245 ± 0.002
refractive index (308.15 K, w1 = 0.45): 1.4258 ± 0.002
refractive index (308.15 K, w1 = 0.46): 1.4275 ± 0.002
refractive index (308.15 K, w1 = 0.47): 1.4285 ± 0.002
refractive index (308.15 K, w1 = 0.48): 1.4301 ± 0.002
refractive index (308.15 K, w1 = 0.49): 1.4309 ± 0.002
refractive index (308.15 K, w1 = 0.5): 1.4319 ± 0.002
refractive index (313.15 K, w1 = 0.2): 1.3801 ± 0.002
refractive index (313.15 K, w1 = 0.21): 1.3825 ± 0.002
refractive index (313.15 K, w1 = 0.22): 1.3851 ± 0.002
refractive index (313.15 K, w1 = 0.23): 1.3866 ± 0.002
refractive index (313.15 K, w1 = 0.24): 1.3886 ± 0.002
refractive index (313.15 K, w1 = 0.25): 1.3917 ± 0.002
refractive index (313.15 K, w1 = 0.26): 1.3938 ± 0.002
refractive index (313.15 K, w1 = 0.27): 1.3955 ± 0.002
refractive index (313.15 K, w1 = 0.28): 1.3975 ± 0.002
refractive index (313.15 K, w1 = 0.29): 1.3999 ± 0.002
refractive index (313.15 K, w1 = 0.3): 1.4011 ± 0.002
refractive index (313.15 K, w1 = 0.31): 1.4033 ± 0.002
refractive index (313.15 K, w1 = 0.32): 1.4044 ± 0.002
refractive index (313.15 K, w1 = 0.33): 1.4061 ± 0.002
refractive index (313.15 K, w1 = 0.34): 1.4086 ± 0.002
refractive index (313.15 K, w1 = 0.35): 1.4105 ± 0.002
refractive index (313.15 K, w1 = 0.36): 1.4121 ± 0.002
refractive index (313.15 K, w1 = 0.37): 1.4136 ± 0.002
refractive index (313.15 K, w1 = 0.38): 1.4154 ± 0.002
refractive index (313.15 K, w1 = 0.39): 1.417 ± 0.002
refractive index (313.15 K, w1 = 0.4): 1.4186 ± 0.002
refractive index (313.15 K, w1 = 0.41): 1.4196 ± 0.002
refractive index (313.15 K, w1 = 0.42): 1.4212 ± 0.002
refractive index (313.15 K, w1 = 0.43): 1.4226 ± 0.002
refractive index (313.15 K, w1 = 0.44): 1.4235 ± 0.002
refractive index (313.15 K, w1 = 0.45): 1.425 ± 0.002
refractive index (313.15 K, w1 = 0.46): 1.4266 ± 0.002
refractive index (313.15 K, w1 = 0.47): 1.4275 ± 0.002
refractive index (313.15 K, w1 = 0.48): 1.4292 ± 0.002
refractive index (313.15 K, w1 = 0.49): 1.43 ± 0.002
refractive index (313.15 K, w1 = 0.5): 1.4311 ± 0.002
refractive index (318.15 K, w1 = 0.2): 1.3795 ± 0.002
refractive index (318.15 K, w1 = 0.21): 1.3819 ± 0.002
refractive index (318.15 K, w1 = 0.22): 1.3847 ± 0.002
refractive index (318.15 K, w1 = 0.23): 1.3858 ± 0.002
refractive index (318.15 K, w1 = 0.24): 1.3877 ± 0.002
refractive index (318.15 K, w1 = 0.25): 1.391 ± 0.002
refractive index (318.15 K, w1 = 0.26): 1.3931 ± 0.002
refractive index (318.15 K, w1 = 0.27): 1.3946 ± 0.002
refractive index (318.15 K, w1 = 0.28): 1.3968 ± 0.002
refractive index (318.15 K, w1 = 0.29): 1.3989 ± 0.002
refractive index (318.15 K, w1 = 0.3): 1.4002 ± 0.002
refractive index (318.15 K, w1 = 0.31): 1.4024 ± 0.002
refractive index (318.15 K, w1 = 0.32): 1.4036 ± 0.002
refractive index (318.15 K, w1 = 0.33): 1.4051 ± 0.002
refractive index (318.15 K, w1 = 0.34): 1.4077 ± 0.002
refractive index (318.15 K, w1 = 0.35): 1.4095 ± 0.002
refractive index (318.15 K, w1 = 0.36): 1.4111 ± 0.002
refractive index (318.15 K, w1 = 0.37): 1.4126 ± 0.002
refractive index (318.15 K, w1 = 0.38): 1.4145 ± 0.002
refractive index (318.15 K, w1 = 0.39): 1.416 ± 0.002
refractive index (318.15 K, w1 = 0.4): 1.4177 ± 0.002
refractive index (318.15 K, w1 = 0.41): 1.4186 ± 0.002
refractive index (318.15 K, w1 = 0.42): 1.4202 ± 0.002
refractive index (318.15 K, w1 = 0.43): 1.4217 ± 0.002
refractive index (318.15 K, w1 = 0.44): 1.4226 ± 0.002
refractive index (318.15 K, w1 = 0.45): 1.4239 ± 0.002
refractive index (318.15 K, w1 = 0.46): 1.4256 ± 0.002
refractive index (318.15 K, w1 = 0.47): 1.4266 ± 0.002
refractive index (318.15 K, w1 = 0.48): 1.4282 ± 0.002
refractive index (318.15 K, w1 = 0.49): 1.4289 ± 0.002
refractive index (318.15 K, w1 = 0.5): 1.4302 ± 0.002
refractive index (323.15 K, w1 = 0.2): 1.3788 ± 0.002
refractive index (323.15 K, w1 = 0.21): 1.3815 ± 0.002
refractive index (323.15 K, w1 = 0.22): 1.3844 ± 0.002
refractive index (323.15 K, w1 = 0.23): 1.3853 ± 0.002
refractive index (323.15 K, w1 = 0.24): 1.3869 ± 0.002
refractive index (323.15 K, w1 = 0.25): 1.3904 ± 0.002
refractive index (323.15 K, w1 = 0.26): 1.3926 ± 0.002
refractive index (323.15 K, w1 = 0.27): 1.3937 ± 0.002
refractive index (323.15 K, w1 = 0.28): 1.3961 ± 0.002
refractive index (323.15 K, w1 = 0.29): 1.3981 ± 0.002
refractive index (323.15 K, w1 = 0.3): 1.3994 ± 0.002
refractive index (323.15 K, w1 = 0.31): 1.4016 ± 0.002
refractive index (323.15 K, w1 = 0.32): 1.4025 ± 0.002
refractive index (323.15 K, w1 = 0.33): 1.4042 ± 0.002
refractive index (323.15 K, w1 = 0.34): 1.4068 ± 0.002
refractive index (323.15 K, w1 = 0.35): 1.4085 ± 0.002
refractive index (323.15 K, w1 = 0.36): 1.4102 ± 0.002
refractive index (323.15 K, w1 = 0.37): 1.4117 ± 0.002
refractive index (323.15 K, w1 = 0.38): 1.4135 ± 0.002
refractive index (323.15 K, w1 = 0.39): 1.4151 ± 0.002
refractive index (323.15 K, w1 = 0.4): 1.4167 ± 0.002
refractive index (323.15 K, w1 = 0.41): 1.4177 ± 0.002
refractive index (323.15 K, w1 = 0.42): 1.4192 ± 0.002
refractive index (323.15 K, w1 = 0.43): 1.4207 ± 0.002
refractive index (323.15 K, w1 = 0.44): 1.4217 ± 0.002
refractive index (323.15 K, w1 = 0.45): 1.423 ± 0.002
refractive index (323.15 K, w1 = 0.46): 1.4247 ± 0.002
refractive index (323.15 K, w1 = 0.47): 1.4257 ± 0.002
refractive index (323.15 K, w1 = 0.48): 1.4273 ± 0.002
refractive index (323.15 K, w1 = 0.49): 1.428 ± 0.002
refractive index (323.15 K, w1 = 0.5): 1.4293 ± 0.002
refractive index (328.15 K, w1 = 0.2): 1.3788 ± 0.002
refractive index (328.15 K, w1 = 0.21): 1.381 ± 0.002
refractive index (328.15 K, w1 = 0.22): 1.3836 ± 0.002
refractive index (328.15 K, w1 = 0.23): 1.3852 ± 0.002
refractive index (328.15 K, w1 = 0.24): 1.3862 ± 0.002
refractive index (328.15 K, w1 = 0.25): 1.39 ± 0.002
refractive index (328.15 K, w1 = 0.26): 1.3922 ± 0.002
refractive index (328.15 K, w1 = 0.27): 1.3929 ± 0.002
refractive index (328.15 K, w1 = 0.28): 1.3953 ± 0.002
refractive index (328.15 K, w1 = 0.29): 1.397 ± 0.002
refractive index (328.15 K, w1 = 0.3): 1.3986 ± 0.002
refractive index (328.15 K, w1 = 0.31): 1.4008 ± 0.002
refractive index (328.15 K, w1 = 0.32): 1.4018 ± 0.002
refractive index (328.15 K, w1 = 0.33): 1.4033 ± 0.002
refractive index (328.15 K, w1 = 0.34): 1.4058 ± 0.002
refractive index (328.15 K, w1 = 0.35): 1.4076 ± 0.002
refractive index (328.15 K, w1 = 0.36): 1.4093 ± 0.002
refractive index (328.15 K, w1 = 0.37): 1.4107 ± 0.002
refractive index (328.15 K, w1 = 0.38): 1.4126 ± 0.002
refractive index (328.15 K, w1 = 0.39): 1.4142 ± 0.002
refractive index (328.15 K, w1 = 0.4): 1.4159 ± 0.002
refractive index (328.15 K, w1 = 0.41): 1.4167 ± 0.002
refractive index (328.15 K, w1 = 0.42): 1.4183 ± 0.002
refractive index (328.15 K, w1 = 0.43): 1.4198 ± 0.002
refractive index (328.15 K, w1 = 0.44): 1.4208 ± 0.002
refractive index (328.15 K, w1 = 0.45): 1.4221 ± 0.002
refractive index (328.15 K, w1 = 0.46): 1.4238 ± 0.002
refractive index (328.15 K, w1 = 0.47): 1.4248 ± 0.002
refractive index (328.15 K, w1 = 0.48): 1.4264 ± 0.002
refractive index (328.15 K, w1 = 0.49): 1.4271 ± 0.002
refractive index (328.15 K, w1 = 0.5): 1.4284 ± 0.002
refractive index (333.15 K, w1 = 0.2): 1.3794 ± 0.002
refractive index (333.15 K, w1 = 0.21): 1.3812 ± 0.002
refractive index (333.15 K, w1 = 0.22): 1.3835 ± 0.002
refractive index (333.15 K, w1 = 0.23): 1.3857 ± 0.002
refractive index (333.15 K, w1 = 0.24): 1.3847 ± 0.002
refractive index (333.15 K, w1 = 0.25): 1.3894 ± 0.002
refractive index (333.15 K, w1 = 0.26): 1.3915 ± 0.002
refractive index (333.15 K, w1 = 0.27): 1.3923 ± 0.002
refractive index (333.15 K, w1 = 0.28): 1.3941 ± 0.002
refractive index (333.15 K, w1 = 0.29): 1.3964 ± 0.002
refractive index (333.15 K, w1 = 0.3): 1.3977 ± 0.002
refractive index (333.15 K, w1 = 0.31): 1.3998 ± 0.002
refractive index (333.15 K, w1 = 0.32): 1.4008 ± 0.002
refractive index (333.15 K, w1 = 0.33): 1.4024 ± 0.002
refractive index (333.15 K, w1 = 0.34): 1.4048 ± 0.002
refractive index (333.15 K, w1 = 0.35): 1.4066 ± 0.002
refractive index (333.15 K, w1 = 0.36): 1.4083 ± 0.002
refractive index (333.15 K, w1 = 0.37): 1.4098 ± 0.002
refractive index (333.15 K, w1 = 0.38): 1.4116 ± 0.002
refractive index (333.15 K, w1 = 0.39): 1.4133 ± 0.002
refractive index (333.15 K, w1 = 0.4): 1.415 ± 0.002
refractive index (333.15 K, w1 = 0.41): 1.4159 ± 0.002
refractive index (333.15 K, w1 = 0.42): 1.4174 ± 0.002
refractive index (333.15 K, w1 = 0.43): 1.4189 ± 0.002
refractive index (333.15 K, w1 = 0.44): 1.4198 ± 0.002
refractive index (333.15 K, w1 = 0.45): 1.4212 ± 0.002
refractive index (333.15 K, w1 = 0.46): 1.4229 ± 0.002
refractive index (333.15 K, w1 = 0.47): 1.4239 ± 0.002
refractive index (333.15 K, w1 = 0.48): 1.4255 ± 0.002
refractive index (333.15 K, w1 = 0.49): 1.4263 ± 0.002
refractive index (333.15 K, w1 = 0.5): 1.4276 ± 0.002
